Data from ChEMBL document CHEMBL1201862, “PubChem BioAssay data set” (2004).
The source made the active and inactive calls. For most assays here, no stated cut-off is given here; in the data, actives have a measured EC50 and inactives only a lower limit.

Assays:
[1] = Luminescence Cell-Based Dose Confirmation HTS to Identify Activators of 5'UTR Stem-Loop Driven Alpha-Synuclein mRNA Translation in H4 Neuroglioblastoma Cells. [Related pubchem assays: 1829 (Project Summary), 1814 (Primary HTS)]; format: functional
[2] = Luminescence Cell-Based Dose Response HTS to Identify Activators of Luciferase Translation or Activity in H4 […] Cells. [Related pubchem assays: 1829 (Project Summary), 1814 (Primary HTS)]; format: functional
[3] = target: T1, Corticotropin-releasing factor receptor 2/Corticotropin-releasing factor-binding protein (Homo sapiens, UniProt P24387+Q13324); assay: activators of CRF receptor 2 with binding protein – uHTS hits, confirmation (AID 602473); format: functional; settings: read-out: EC50_Mean
T1 sequence (Q13324 whole entry): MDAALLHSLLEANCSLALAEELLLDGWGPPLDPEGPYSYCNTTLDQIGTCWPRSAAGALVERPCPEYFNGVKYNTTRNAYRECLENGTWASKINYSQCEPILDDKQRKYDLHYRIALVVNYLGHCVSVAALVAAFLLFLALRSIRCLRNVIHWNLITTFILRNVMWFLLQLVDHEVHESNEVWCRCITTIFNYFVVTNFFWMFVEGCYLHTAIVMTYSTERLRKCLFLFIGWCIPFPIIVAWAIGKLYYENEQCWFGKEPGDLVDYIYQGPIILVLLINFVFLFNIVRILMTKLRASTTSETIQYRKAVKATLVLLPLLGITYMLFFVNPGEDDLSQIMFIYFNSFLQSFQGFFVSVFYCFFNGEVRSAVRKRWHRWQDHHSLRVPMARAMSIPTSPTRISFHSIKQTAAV
T1 sequence (P24387 whole entry): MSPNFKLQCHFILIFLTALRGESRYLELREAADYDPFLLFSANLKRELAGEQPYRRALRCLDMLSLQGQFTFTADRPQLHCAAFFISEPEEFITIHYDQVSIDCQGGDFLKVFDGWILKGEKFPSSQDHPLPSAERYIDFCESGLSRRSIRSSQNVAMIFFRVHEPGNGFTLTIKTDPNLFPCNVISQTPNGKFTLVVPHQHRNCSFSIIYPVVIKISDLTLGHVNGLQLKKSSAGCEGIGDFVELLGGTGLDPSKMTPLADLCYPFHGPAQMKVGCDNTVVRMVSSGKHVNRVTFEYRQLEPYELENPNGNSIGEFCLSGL

[4] = target: T1, Corticotropin-releasing factor receptor 2/Corticotropin-releasing factor-binding protein; assay: Dose Response confirmation of uHTS hits for small molecule antagonists of the CRF-binding protein and CRF-R2 receptor complex.; format: functional; settings: read-out: IC50_Mean
[5] = test system: H4; assay: Luminescence Cell-Based Dose Response HTS to Identify Activators of 5'UTR Stem-Loop Driven Prion Protein mRNA Translation in H4 Neuroglioblastoma Cells. [Related pubchem assays: 1829 (Project Summary), 1814 (Primary HTS)]; format: functional; settings: Homo sapiens
[6] = control 3'UTR Renilla luciferase suppression, dose response, counter-screen for Shn3 inhibitor project, cell-based, Clone20-Shn3RL, cherry-picked (AID 624133); format: functional
[7] = HepG2 cell cytotoxicity, dose response, cytotoxicity control for Shn3 inhibitor project, CellTiter-Glo, cherry-picked (AID 624134); format: functional, cell-based
[8] = Shn3 3'UTR reporter inhibitors, dose response, cell-based, Clone20 osteoblasts, firefly luciferase, cherry-picked (AID 624132); format: functional;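 further: firefly luciferase luminescence from reporter carrying the Shn3 3'UTR in osteoblasts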
[9] = inhibitors of SNCA 5'UTR-driven reporter translation, confirmation, H4 neuroglioma cells, luminescence (AID 1988); format: functional, cell-based
[10] = cytotoxicity toward NIH3T3 fibroblasts, dose response, counter-screen, cell-based, ATP luminescence, mouse fibroblasts (AID 2010); format: functional;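 further: cells exposed to compound for about 90 hours before reading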
[11] = inhibitors of firefly luciferase expression or activity, dose response, H4 neuroglioma cells, luminescence (AID 1990); format: functional, cell-based
[12] = inhibitors of intracellular T. cruzi replication, confirmation, NIH3T3 host cells, beta-gal luminescence (AID 2044); format: functional, cell-based;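 further: intracellular parasites grown in NIH/3T3 mouse fibroblasts as host cells; luminescent beta-galactosidase reporter signal from transgenic T. cruzi replicating inside host cells; inhibitors lower the luminescence signal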
[13] = Luminescence Cell-Based Dose Response HTS to Identify Inhibitors of 5'UTR Stem-Loop Driven Prion Protein mRNA Translation in H4 Neuroglioblastoma Cells. [Related pubchem assays: 1827 (Project Summary), 1813 (Primary HTS)]; format: functional
[14] = target: T2, Replicative DNA helicase DnaB (Mycobacterium tuberculosis, UniProt P9WMR3); assay: DnaB intein splicing inhibitors, dose response, biochemical, cell-free fluorescence (AID 449749); format: functional
T2 sequence (P9WMR3 whole entry): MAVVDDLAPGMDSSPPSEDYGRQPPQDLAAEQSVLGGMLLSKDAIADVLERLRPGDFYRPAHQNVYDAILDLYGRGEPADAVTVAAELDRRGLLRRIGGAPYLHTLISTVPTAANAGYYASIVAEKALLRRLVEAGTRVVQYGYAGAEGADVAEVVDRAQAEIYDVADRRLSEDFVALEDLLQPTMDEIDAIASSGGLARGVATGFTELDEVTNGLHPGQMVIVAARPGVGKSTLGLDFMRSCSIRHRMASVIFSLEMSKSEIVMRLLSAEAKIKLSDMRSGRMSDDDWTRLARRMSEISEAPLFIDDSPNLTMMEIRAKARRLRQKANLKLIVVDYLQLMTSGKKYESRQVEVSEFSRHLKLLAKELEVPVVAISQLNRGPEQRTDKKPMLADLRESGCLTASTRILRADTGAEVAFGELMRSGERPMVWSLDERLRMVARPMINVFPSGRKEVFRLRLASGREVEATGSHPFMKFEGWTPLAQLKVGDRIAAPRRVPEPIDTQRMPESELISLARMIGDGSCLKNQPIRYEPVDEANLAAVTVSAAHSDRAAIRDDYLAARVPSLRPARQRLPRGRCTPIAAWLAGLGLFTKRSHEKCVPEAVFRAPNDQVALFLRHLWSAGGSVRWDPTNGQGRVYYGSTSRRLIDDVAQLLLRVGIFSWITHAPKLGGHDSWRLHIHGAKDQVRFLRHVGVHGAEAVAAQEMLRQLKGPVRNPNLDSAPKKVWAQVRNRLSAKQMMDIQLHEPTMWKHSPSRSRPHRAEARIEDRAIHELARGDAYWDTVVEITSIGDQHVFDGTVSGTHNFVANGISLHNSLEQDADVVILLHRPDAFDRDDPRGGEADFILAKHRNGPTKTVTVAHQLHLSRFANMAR

[15] = target: T3, Protein RecA (Mycobacterium tuberculosis, UniProt P9WHJ3); assay: Fluorescence Cell-Free Homogeneous Dose Retest to Identify Inhibitors of RecA-Intein Splicing Activity. [Related pubchem assays (depositor defined):AID2097, AID2223, AID489010, AID492950]; format: functional
T3 sequence (P9WHJ3 whole entry): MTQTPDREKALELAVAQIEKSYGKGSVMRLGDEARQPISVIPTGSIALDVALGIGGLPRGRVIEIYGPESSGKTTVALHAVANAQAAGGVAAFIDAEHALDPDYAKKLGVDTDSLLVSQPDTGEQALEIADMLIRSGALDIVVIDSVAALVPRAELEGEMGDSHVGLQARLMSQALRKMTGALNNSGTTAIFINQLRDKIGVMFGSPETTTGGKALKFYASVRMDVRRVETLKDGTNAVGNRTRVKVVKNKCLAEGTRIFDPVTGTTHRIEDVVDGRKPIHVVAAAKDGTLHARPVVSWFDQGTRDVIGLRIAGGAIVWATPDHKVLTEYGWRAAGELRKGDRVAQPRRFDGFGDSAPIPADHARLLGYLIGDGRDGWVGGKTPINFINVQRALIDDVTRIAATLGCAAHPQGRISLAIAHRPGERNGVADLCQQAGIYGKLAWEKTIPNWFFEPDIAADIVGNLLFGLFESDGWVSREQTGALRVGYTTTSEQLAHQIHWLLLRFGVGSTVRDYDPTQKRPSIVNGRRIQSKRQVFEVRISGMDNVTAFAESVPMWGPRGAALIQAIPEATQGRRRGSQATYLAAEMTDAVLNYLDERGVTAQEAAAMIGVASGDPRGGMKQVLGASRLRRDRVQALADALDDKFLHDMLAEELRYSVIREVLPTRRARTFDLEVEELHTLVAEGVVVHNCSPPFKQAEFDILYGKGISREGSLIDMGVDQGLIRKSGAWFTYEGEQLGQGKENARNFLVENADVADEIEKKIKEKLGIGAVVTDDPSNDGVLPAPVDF

[16] = target: Paired box protein Pax-8 (Homo sapiens, UniProt Q06710); assay: inhibitors of PAX8-driven TPO luciferase reporter, dose response, RMG-I cells, cherry-pick (AID 687027); format: functional, cell-based;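 further: luciferase reporter driven by Pax8 target thyroperoxidase promoter measured by SteadyGlo luminescence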
Chain of Paired box protein Pax-8 (Q06710 whole entry): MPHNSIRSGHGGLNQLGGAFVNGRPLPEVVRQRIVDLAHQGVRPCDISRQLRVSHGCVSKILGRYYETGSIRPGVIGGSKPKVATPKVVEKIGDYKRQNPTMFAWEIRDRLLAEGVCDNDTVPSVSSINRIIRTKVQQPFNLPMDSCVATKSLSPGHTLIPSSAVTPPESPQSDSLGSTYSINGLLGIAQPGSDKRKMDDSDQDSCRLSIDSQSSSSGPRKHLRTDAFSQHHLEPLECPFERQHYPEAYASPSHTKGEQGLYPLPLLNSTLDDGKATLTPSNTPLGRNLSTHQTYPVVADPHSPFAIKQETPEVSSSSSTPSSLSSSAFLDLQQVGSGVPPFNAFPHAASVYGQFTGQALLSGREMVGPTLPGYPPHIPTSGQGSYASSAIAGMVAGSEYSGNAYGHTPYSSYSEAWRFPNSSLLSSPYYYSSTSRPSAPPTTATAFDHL

| Compound | EC50 [1] | EC50 [2] | EC50 [3] | IC50 [4] | EC50 [5] | other results |
| --- | --- | --- | --- | --- | --- | --- |
| Cc1c(C(=O)NC(=S)NCC(C)C)oc2ccccc12 | 27.2 µM (active) | 63.2 µM (active) | – | – | – | – |
| COCCn1c(SCC(=O)c2ccc3c(c2)OCCO3)nnc1-c1ccco1 | – | – | > 53 µM (inactive) | > 47.1 µM (inactive) | – | – |
| CC1CCCCN1C(=O)CSc1nc2ccsc2c(=O)n1Cc1ccccn1 (stereo not given) | 46.3 µM (active) | 5.86 µM (active) | – | – | 9.84 µM (active) | – |
| CCc1c(C)nc2ncnn2c1Nc1ccc(C(C)=O)cc1 | 34.4 µM (active) | 92 µM (active) | – | – | 57.4 µM (active) | – |
| COc1ccc(OC)c(C(=O)Cn2nnc(-c3ccc(N4CCOCC4)cc3)n2)c1 | > 120 µM (not active) | > 120 µM (not active) | – | – | > 120 µM (not active) | – |
| C[C@H]1CN=C(N(C)C)N1CC1CCC(C(C)(C)C)CC1 (stereo not given in full) | – | – | – | – | – | AC50 [6]: 20.3 µM (active); AC50 [7]: 41.5 µM (active); AC50 [8]: 2.27 µM (active) |
| CC(C)c1ccc(NCCC(=O)c2cccs2)cc1 | 4.14 µM (active) | 33.1 µM (active) | – | – | 61.8 µM (active) | – |
| Brc1ccc2c(c1)OCCOCCOc1cc(Br)ccc1OCCOCCOCCO2 | – | – | – | – | – | EC50 [9]: > 120 µM (not active); EC50 [10]: > 60 µM (not active); EC50 [11]: 14.1 µM (active); EC50 [12]: 1.04 µM (active); EC50 [13]: 103 µM (active) |
| COc1ccc(NC(=O)CSc2nnc(N)s2)c([N+](=O)[O-])c1 | – | – | > 53 µM (inactive) | > 47.1 µM (inactive) | – | – |
| O=C1CCCC/C1=C/Nc1ccc2c(c1)OCO2 | 8.5 µM (active) | 7.34 µM (active) | – | – | > 120 µM (not active) | – |
| Cc1ccc(C(=O)NC(=S)NCC2CCCO2)cc1Br (stereo not given) | 11 µM (active) | 21 µM (active) | – | – | 45.5 µM (active) | – |
| Cc1ccc(NC(=O)c2cc(NC(=O)/C=C\C(=O)O)ccc2N2CCCCC2)cc1 | – | – | > 53 µM (inactive) | > 47.1 µM (inactive) | – | AC50 [14]: 14.4 µM (active); EC50 [15]: 9.32 µM (active) |
| CCOC(=O)N1CCN(C(=O)CCNS(=O)(=O)c2ccc3c(c2)c(=O)n(C)c(=O)n3C)CC1 | > 120 µM (not active) | > 120 µM (not active) | – | – | > 120 µM (not active) | – |
| CCN1CCN(C(=O)C2=CC(c3ccc(OC)cc3)=NS(=O)(=O)N2C)CC1 | – | – | > 53 µM (inactive) | > 47.1 µM (inactive) | – | – |
| c1ccc2c(c1)oc1c(NCC3CCCO3)ncnc12 (stereo not given) | 8.39 µM (active) | 19 µM (active) | – | – | 7.09 µM (active) | – |
| Cc1ccsc1C1Nc2ccccc2-c2nc3ccccc3n21 (stereo not given) | 24.3 µM (active) | 60.7 µM (active) | – | – | 26.1 µM (active) | – |
| NC(Cc1ccccc1Sc1ccccc1)=NO | – | – | > 53 µM (inactive) | > 47.1 µM (inactive) | – | – |
| CN(Cc1cccs1)C(=O)Cc1csc(-c2ccccc2)n1 | 32 µM (active) | 10.1 µM (active) | – | – | 15.9 µM (active) | – |
| COc1cc(CCC(=O)NC2(C)CCS(=O)(=O)C2)cc(OC)c1OC (stereo not given) | – | – | > 53 µM (inactive) | > 47.1 µM (inactive) | – | – |
| COc1ccc(CCN2CCCC(CN(C)C(=O)c3cc(C)oc3C)C2)cc1 (stereo not given) | 41.5 µM (active) | 31.9 µM (active) | – | – | 32.7 µM (active) | EC50 [10]: > 60 µM (not active); EC50 [12]: 0.149 µM (active) |
| COc1cc2c(c(OC)c1OC)-c1ccc(SC)c(=O)cc1C(NC=O)CC2 (stereo not given) | – | – | – | – | – | AC50 [16]: < 0.26 µM (active) |
| COc1ccc(S(=O)(=O)N2CCOCC2)cc1NC(=O)CC1CC2CCC1C2 (stereo not given) | – | – | > 53 µM (inactive) | > 47.1 µM (inactive) | – | – |
| COc1ccc2ccccc2c1CNCCCN1CCOCC1 | – | – | > 53 µM (inactive) | > 47.1 µM (inactive) | – | – |
| O=C(NCc1cc(C(F)(F)F)ccc1Cl)c1cccc2c1C(=O)c1ccc(N3CCCCC3)cc1S2(=O)=O | – | – | 6.26 µM (active) | – | – | – |
| COc1cccc(CNC(=O)C2CCC(=O)N(CC3CCCCC3)C2)c1OC (stereo not given) | – | – | > 53 µM (inactive) | > 47.1 µM (inactive) | – | – |
| COc1ccc(CC(N)c2csc(NC(=O)Nc3cccc(C(F)(F)F)c3)n2)cc1 (stereo not given) | – | – | – | – | – | AC50 [6]: 7.68 µM (active); AC50 [7]: 11 µM (active); AC50 [8]: 8.4 µM (active) |
| Cc1ccc(-c2nn(-c3ccccc3)cc2/C=N/n2c(S)nnc2-c2ccncc2)cc1 | > 120 µM (not active) | 34.3 µM (active) | – | – | 34.1 µM (active) | – |
| C[C@@H]1CN([C@@H](C)CO)C(=O)c2cc(NC(=O)Nc3cccc4ccccc34)ccc2O[C@@H]1CN(C)Cc1ccc2c(c1)OCO2 | – | – | – | – | – | AC50 [16]: 18.5 µM (active) |
| C[C@@H]1CCCCO[C@H](CN(C)C(=O)Nc2ccc(C(F)(F)F)cc2)[C@@H](C)CN([C@@H](C)CO)C(=O)c2cc(NS(=O)(=O)c3ccccc3)ccc2O1 | – | – | – | – | – | AC50 [16]: 3.24 µM (active) |
